Measured values taken from patent publication US20040121307A1, “Early detection of cellular differentiation using optophoresis” (Genoptix, Inc, priority 2002, published 2004).
Values joined by “and” are separate entries in the source; they are usually repeats but may differ in a detail not shown here. Equal values may be shown once.

Key:
Format in all cases: cell-based
[1] = test system: U937 cells; experiment: Separation of drug treated and untreated leukemia cells, escape velocity; conditions: PMA 5 ug/mL, 6 hours
Method: PMA was dissolved in ethanol at a concentration of 5 mg/mL. 3 mls of U937 cells grown in RPMI 1640 media with supplements were removed from the culture flask and 1 ml was placed into each of three eppendorf tubes. Cells from the first tube were pelleted for 4 minutes at 10,000 rpm and resuspended in 250 uL PBS/1% BSA buffer for escape velocity measurements. PMA was added to the remaining two tubes of U937 cells to a final concentration of 5 ug/mL. These tubes were vortexed and placed in a 37° C. water bath for either one hour or six hours. At the end of the time point, the tube was removed, cells were pelleted and then resuspended as described above and escape velocity measurements taken.

[2] = test system: U937 cells; experiment: Experiment 2: time and concentration dependence of PMA, escape velocity; parameters: escape velocity, Ave.: unit not given here
Method: This experiment was conducted to test the effect of PMA concentration on the escape velocity of U937 cells. PMA concentrations of 10 ng/ml, 1 ng/ml, 100 pg/ml, 10 pg/ml and 1 pg/ml were tested. The control sample received EtOH and not PMA.
The PMA concentration was tested at three timepoints: 1 hour, 3 hours and 5 hours. At each timepoint, 300 μl of cells were removed from each flask. The cells were then spun for 5 minutes at 5000 rpm. The cells were then resuspended in […] PBS/1% BSA and […] of trypan blue.

[3] = test system: CD11b expression in HL-60 cells; experiment: FACS CD11b expression profile; conditions: 400 ng/ml PMA
Method: Fast scan analysis was also performed on HL-60 cells that were treated with PMA and DMSO. A time course evaluation of PMA treated HL-60 cells was performed with fast scan data taken at 16 hours, 24 hours, 40 hours, and 72 hours post-treatment with 400 ng/ml PMA. A control sample of HL-60 cells was also tested using EtOH as the vehicle for purposes of comparing the differentiated cells with the undifferentiated HL-60 cells. The PMA-treated and control cells were harvested and trypsinized. The samples were then resuspended in PBS/1% BSA. A set of samples was also obtained and left as pellets at 4° C. for subsequent FACS analysis.
FIG. 145 illustrates a histogram of the travel distance of the control cells as well as the PMA-treated cells at 16 hours, 24 hours, 40 hours, and 72 hours post-treatment. FIG. 146 illustrates the mean travel distances of the control cells as well as the PMA-treated cells at 16 hours, 24 hours, 40 hours, and 72 hours post-treatment. FIG. 147 illustrates the FACS CD11b expression profile in PMA-treated HL-60 cells as well as the control. CD11b is a known marker of cellular differentiation and is expressed on the surface of differentiating cells. […] The data illustrate that Optophoretic analysis can be used as an assay for the detection and quantification of cellular differentiation. […]

[4] = test system: U937 cells; experiment: Experiment 3: PMA inhibition by bisindolymaleimide, escape velocity; conditions: 10 ng/ml PMA only, four hours
Text: The objective of this experiment was to test the effect of bisindolymaleimide on cells exposed to PMA. Bisindolymaleimide is a Protein Kinase C inhibitor and should block the effect of PMA on U937 cells and their escape velocities. As shown in this and prior experiments, exposure of U937 cells to PMA results in an increase in the escape velocity of the cells. Therefore, it is anticipated that addition of bisindolymaleimide will reduce or eliminate the increase in escape velocity caused by PMA. This has in fact been observed in the data shown below.
Bisindolymaleimide was tested at two concentrations: 200 ng/ml and 50 ng/ml. Samples not treated with bisindolymaleimide received an equivalent amount of the carrier, MeOH, as a control. […] The concentration of PMA tested was 10 ng/ml. Samples not receiving PMA received DMSO.
Once the flasks were prepared, they were incubated at 37° C. 5% CO2 for four hours. At the four hour timepoint, 300 μl of cells were removed from each flask and pelleted at 5000 rpm for 5 minutes. The cells were then resuspended in 6 ml PBS/1% BSA and 60 μl trypan blue.

[5] = test system: HL-60 cells; experiment: Cellular differentiation of HL-60, escape velocity
Text: HL-60 is a promyelocytic leukemia cell line that retains the capacity to undergo terminal differentiation and serves as a model system to study myeloid pathways of cellular differentiation. It is known that treatment of HL-60 cells with phorbol 12-myristate 13-acetate (PMA) causes the cells to differentiate into monocytes/macrophages. In addition, it is also known that treatment of HL-60 cells with dimethylsulfoxide (DMSO) causes these same cells to undergo granulocytic differentiation.
Initial tests were performed using HL-60 cells treated with PMA. HL-60 cells were seeded at about 1-3×10^6 cells per well in six well plates. The cells were treated with 200 ng/ml PMA while the control cells were treated with ethanol (EtOH) vehicle for four hours at 37° C. After incubation for four hours the treated cells were washed with PBS and re-fed with growth media. The treated HL-60 cells were then allowed to differentiate for 72 hours in normal growth media. After the 72 hour period, the untreated control cells were collected by centrifugation, washed with PBS and pelleted for resuspension at 1.5×10^6 cells/ml in PBS/1% BSA. Treated cells were trypsinized and collected by centrifugation then washed in PBS and pelleted for resuspension at 1×10^6 cells/ml in PBS/1% BSA. The cells were the subjected to Optophoretic analysis by measuring the escape velocities of the treated and control cells. Table 23 shown below illustrates the measured escape velocities of the undifferentiated and differentiated cells at 72 hours post treatment.

Question: How did the “escape velocity as compared to the untreated cells” value [1] turn out when CCCCCCCCCCCCCC(=O)O[C@@H]1[C@@H](C)[C@@]2(O)[C@@H](C=C(CO)C[C@]3(O)C(=O)C(C)=C[C@@H]23)[C@@H]2C(C)(C)[C@]12OC(C)=O [PMA, phorbol 12 myristate 13-acetate] was run?
Answer: significantly higher escape velocity

Question: What about the “escape velocity, Ave.” value ([2]; 10 pg/ml PMA, 1 Hour Activation) of the same molecule?
Answer: 14.4

Question: What about the “escape velocity, Ave.” value ([2]; 10 pg/ml PMA, 3 Hour Activation) of the same molecule?
Answer: 14.5

Question: What about the “escape velocity, Ave.” value ([2]; 10 pg/ml PMA, 5 Hour Activation) of the same molecule?
Answer: 14.1

Question: What about the “escape velocity, Ave.” value ([2]; 100 pg/ml PMA, 1 Hour Activation) of the same molecule?
Answer: 14.4

Question: And the “escape velocity, Ave.” value ([2]; 100 pg/ml PMA, 3 Hour Activation)?
Answer: 15.5

Question: And the “escape velocity, Ave.” value ([2]; 100 pg/ml PMA, 5 Hour Activation)?
Answer: 16.1

Question: What about the “escape velocity, Ave.” value ([2]; 1 ng/ml PMA, 1 Hour Activation) of the same molecule?
Answer: 14.3

Question: And the “escape velocity, Ave.” value ([2]; 1 ng/ml PMA, 3 Hour Activation)?
Answer: 15.1

Question: And the “escape velocity, Ave.” value ([2]; 1 ng/ml PMA, 5 Hour Activation)?
Answer: 16.5

Question: And the “escape velocity, Ave.” value ([2]; 10 ng/ml PMA, 1 Hour Activation)?
Answer: 14.8

Question: And the “escape velocity, Ave.” value ([2]; 10 ng/ml PMA, 3 Hour Activation)?
Answer: 15.2

Question: What about the “escape velocity, Ave.” value ([2]; 10 ng/ml PMA, 5 Hour Activation) of the same molecule?
Answer: 16.2

Question: And the “Optophoretic difference versus control” value ([2]; two lowest concentrations, 10 pg/ml and 1 pg/ml PMA)?
Answer: showed no Optophoretic difference

Question: What about the “time after treatment at which a noticeable change in CD11b expression levels was observed” value [3] of the same molecule?
Answer: about 40 hours

Question: And the average escape velocity [4]?
Answer: 15.4 μm/sec

Question: What about the “escape velocity, Average” value ([5]; HL-60 + PMA at 72 hours (differentiated), 200 ng/ml PMA for four hours) of the same molecule?
Answer: 14.0 μm/sec

Question: And the “Escape Velocity, individual cell” value ([5]; HL-60 + PMA at 72 hours (differentiated), 200 ng/ml PMA for four hours, Cell No. 1 to 20)?
Answer: 14.0 μm/sec (3×) and 12.5 μm/sec (3×) and 16.5 μm/sec and 14.5 μm/sec (3×) and 13.0 μm/sec (2×) and 13.5 μm/sec (2×) and 15.5 μm/sec (2×) and 15.0 μm/sec (2×) and 16.0 μm/sec and 11.0 μm/sec

Question: What about the “increase in measured escape velocity as compared to the control cells” value ([5]; HL-60 + PMA at 72 hours, on average) of the same molecule?
Answer: about 2 μm/sec
